Data set [1] can be described thus: Cell absorption test. It is filed as cell-based.
Data set [2] is described as follows: Cytotoxicity test (CCK8 cell viability). It is filed as cell-based. As to conditions: CHO-K1 cells, FIG. 5, molar ratio 20/1 and 40/1, siRNA 50 nM, read-out: cell survival rate. On the procedure:
CHO-K1 cells were seeded at 5,000-8,000 cells/well in clear, flat-bottomed, 96-well plates in triplicate and grown for 24 h at 37° C. with 5% CO2. The complexes or control samples were added to the cells in 150 μl of standard media and the cells were incubated for 48 h. The CCK8 assay was used to determine cell viability, according to the manufacturer's instructions. Briefly, […] of CCK8 stock was added to each well and incubated for 2 h at 37° C. in 5% CO2. Then, the cultures were removed from the incubator and the absorbance at 570 nm was read on a plate reader (FLUOstar OPTIMA, BMG, Germany). The background absorbance of the multiwell plates at 690 nm was determined and subtracted from the 570 nm measurement. The results obtained from triplicate wells were averaged and normalized using the value obtained for non-treated cells.

The conditions of data set [3]: reported in WO2013/075244 A1; cited from earlier work.
The conditions of data set [4]: reported in WO2013/075244 A1; cited from earlier work. This is another data set of the same source.

The values below come from US11306313B2, “Peptide, complex of peptide and siRNA, and methods of use thereof” (Positec Power Tools (Suzhou) Co., Ltd, priority 2013, dated 2022).

Where a SMILES comes first, the peptide text is derived from it.

Turning to “CH3(CH2)16CONH-HHHHHHHHHHHHHHHHRRRRRRRR-CONH2 (stearyl-HHHHHHHHHHHHHHHHRRRRRRRR-NH2) [STR-HR]”, the “absorption efficiency compared with lipid 2000” value in data set [1] is given as “higher than that of lipid 2000”. As to `CC(=O)NCC(=O)N[C@@H](CC(C)C)C(=O)N[C@@H](Cc1c[nH]c2ccccc12)C(=O)N[C@@H](Cc1c[nH]cn1)C(=O)N[C@@H](C)C(=O)N[C@@H](Cc1c[nH]c2ccccc12)C(=O)N[C@@H](CC(C)C)C(=O)N[C@@H](Cc1c[nH]c2ccccc12)C(=O)N[C@@H](Cc1c[nH]cn1)C(=O)N[C@@H](C)C(=O)N[C@@H](Cc1ccccc1)C(=O)N[C@@H](CC(C)C)C(=O)N[C@@H](C)C(=O)N[C@@H](CO)C(=O)N[C@@H](Cc1c[nH]cn1)C(=O)N[C@@H](CCCNC(=N)N)C(=O)N[C@@H](CC(C)C)C(=O)N[C@@H](CC(C)C)C(=O)N[C@@H](CCCNC(=N)N)C(=O)N[C@@H](CC(C)C)C(=O)N[C@@H](CC(C)C)C(=O)N[C@@H](CCCNC(=N)N)C(N)=O` [GL5, CH3CONH-GLWHAWLWHAFLASHR LLRLLR-CONH2] (Ac-GLWHAWLWHAFLASHRLLRLLR-NH2), the viability at 48 h in data set [2] was around 105%. In the case of “GLWRAWLWKAFLASNWRRLLRLLR (Synthetic sequence - peptide GL1)”, in data set [3], the gene silencing efficiency entry is given as “about 50%”. Also, the “siRNA delivery (uptake) efficiency” value in data set [4] is on record as “about 95%”.
